From patent US20120077957A1, “Lactam-Bridged Melanocortin Receptor-Specific Peptides” (PALATIN TECHNOLOGIES, INC., priority 2009, published 2012)
Where two headings read alike, the source gives them in different places. Bridge positions count the residues as written; N and C are the ends. Square brackets hold non-standard residues; d marks the D form. Peptide text beside a SMILES is read from it. Orn = NCCC[C@H](N)C(=O)O

Experiments:
[1] = biological target: T1, human MC4-R (Homo sapiens, UniProt P32245); experiment: Competitive inhibition binding assay with [I125]-NDP-α-MSH or Eu-NDP-α-MSH, membranes of HEK-293 cells expressing recombinant hMC4-R
T1 construct: expressed in transfected cells; host or cells: HEK293 T-REx (tetracycline-regulated, Invitrogen); cell line from Palatin Technologies with license from the University of Michigan
T1 sequence (P32245 whole entry): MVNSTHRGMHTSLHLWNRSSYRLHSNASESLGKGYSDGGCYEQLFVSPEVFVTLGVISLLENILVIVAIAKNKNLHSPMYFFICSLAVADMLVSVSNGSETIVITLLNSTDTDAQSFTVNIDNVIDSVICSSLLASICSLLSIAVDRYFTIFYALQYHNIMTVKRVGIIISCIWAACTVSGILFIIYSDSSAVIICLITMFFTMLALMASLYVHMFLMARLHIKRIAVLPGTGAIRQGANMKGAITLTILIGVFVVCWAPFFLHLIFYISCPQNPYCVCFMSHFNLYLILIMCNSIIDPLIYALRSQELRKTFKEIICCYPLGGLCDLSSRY
Protocol: A competitive inhibition binding assay was performed using membrane homogenates prepared from HEK-293 cells that express recombinant hMC4-R, hMC3-R, or hMC5-R, and from B-16 mouse melanoma cells (containing endogenous MC1-R). In some instances, HEK-293 cells that express recombinant hMC1-R were employed. In the examples that follow, all MC3-R, MC4-R and MC5-R values are for human recombinant receptors. […] After incubation for 60 minutes at 37° C., the assay mixture was filtered and the membranes washed three times with ice-cold buffer. Filters were dried and counted in a gamma counter for bound radioactivity. […] Maximal specific binding (100%) was defined as the difference in radioactivity (cpm) bound to cell membranes in the absence and presence of 1 μM NDP-α-MSH. […] Ki values for test peptides of the present invention were determined using Graph-Pad Prism® curve-fitting software.
Alternatively, a competitive inhibition binding assay was performed employing Eu-NDP-α-MSH (PerkinElmer Life Sciences catalog No. AD0225) with determination by time-resolved fluorometry (TRF) of the lanthanide chelate. […] After incubation for 90 minutes at 37° C., the reaction was stopped by filtration over AcroWell 96-well filter plates (Pall Life Sciences). The filter plates were washed 4 times with 200 μL of ice-cold phosphate-buffered saline. DELFIA Enhancement solution (PerkinElmer Life Sciences) was added to each well. […] Each assay was conducted in duplicate and mean values were utilized. Ki values were determined by curve-fitting with Graph-Pad Prism® software using a one-site fixed-slope competition binding model.

[2] = biological target: T1, human MC4-R; experiment: cAMP functional assay in HEK-293 T-REx cells expressing human MC4-R, induced with doxycycline 0.1 ng/mL (low density); assay type: cell-based; settings: doxycycline 0.1 ng/mL, averages of all comparable assays; for Emax: HEK293-T-REx, maximal cAMP stimulation, NDP-α-MSH = 100%, read-out: Emax; for EC50: human MC4-R cAMP assay, read-out: Ec50
Text: A HEK293 cell line transfected with human MC4-R (from Palatin Technologies, US, with license from the University of Michigan) was used. The human MC4-R was introduced to HEK293 by using the T-REx™ System, Invitrogen. The T-REx™ System employs a tetracycline-regulated mammalian expression system that uses regulatory elements from the E. coli Tn10-encoded tetracycline (Tet) resistance operon. By use of the T-REx™ System, expression of the gene of interest, the human MC4-R gene, is repressed in the absence of tetracycline or doxycycline and induced in the presence of tetracycline or doxycycline (see T-REx™ System Manual, published by Invitrogen).
Cells were then counted and volume was adjusted to 5×10^4 cells per 200 μL.
The cells were then dispensed into 96-well plates (BD 353916) in 198 μL (about 5×10^4) cells/well and incubated for 10 minutes at 37° C. The compound to be tested was diluted with DMSO to a final concentration of 1 mM. Serial dilution was prepared in polypropylene removable 12-well library tube strips (VWR cat #83009-682). 120 μL of the 1 mM compound stock was pipetted in the second column on the plate.
2 μL of the standard, [Nle^4, D-Phe^7]alpha-Melanocyte Stimulating Hormone (NDP-α-MSH), or compound was added to the 96-well plate using the Janus robotic system. All assay samples were run in duplicate (i.e. each sample was in two low dox and two high dox plates, respectively). The plates were gently shaken and incubated for 15 minutes at 37° C. The reaction was stopped by adding 15 μL of lysis buffer per well and the plates were shakened for 30 minutes at room temperature.
Agonist stimulation of the MC4-R activates adenylate cyclase, which is an enzyme that catalyses the formation 3′,5′-cyclic adenosine monophosphate (cAMP) from adenosine triphosphate (ATP). […] Fluoresence ratios were then calculated as described in the CisBio HTRF kit, with GraphPad Prism software used to plot the change in fluorescence percent values versus cAMP concentration using the variable slope dose response curve and, based on calculated cAMP concentrations, to determine EC50 and Emax values. […]

[3] = human MC4-R, averages of all comparable assays, read-out: Ki

| Ki [1, 3] [nM] | Emax [2] [%] | EC50 [2] [nM] | Ki [1] [nM] | SMILES |
| --- | --- | --- | --- | --- |
| 6 | 55 | 8 | – | CC(=O)N[C@@H](CCCNC(=N)N)C(=O)N[C@H]1CCC(=O)NCCC[C@@H](C(N)=O)NC(=O)[C@H](Cc2c[nH]c3ccccc23)NC(=O)[C@H](CCCNC(=N)N)NC(=O)[C@@H](Cc2ccccc2)NC(=O)[C@@H]2C[C@@H](N)CN2C1=O [No. 32, Ac-Arg-cyclo(Glu-Pro(4R-NH2)-D-Phe-Arg-Trp-Orn)-NH2] |
| 6 | – | 0.4 | – | CC(=O)N[C@@H](CCCNC(=N)N)C(=O)N[C@H]1CCC(=O)NCCC[C@@H](C(N)=O)NC(=O)[C@H](Cc2c[nH]c3ccccc23)NC(=O)[C@H](CCCNC(=N)N)NC(=O)[C@@H](Cc2ccccc2)NC(=O)[C@H](CC(N)=O)NC1=O [No. 34, Ac-Arg-cyclo(Glu-Asn-D-Phe-Arg-Trp-Orn)-NH2] |
| 18 | 84 | 12 | – | CC(=O)N[C@@H](CCCNC(=N)N)C(=O)N[C@H]1CC(=O)NCCCC[C@@H](C(=O)O)NC(=O)[C@H](Cc2c[nH]c3ccccc23)NC(=O)[C@H](CCCNC(=N)N)NC(=O)[C@@H](Cc2ccccc2)NC(=O)[C@H](CCCN)NC1=O [reference compound] |
| 5 | 61 | 8 | – | CC(=O)N[C@@H](CCCNC(=N)N)C(=O)N[C@H]1CC(=O)NCCCC[C@@H](C(N)=O)NC(=O)[C@H](Cc2c[nH]c3ccccc23)NC(=O)[C@H](CCCNC(=N)N)NC(=O)[C@@H](Cc2ccccc2)NC(=O)[C@@H]2C[C@@H](N)CN2C1=O [reference compound] |
| 3 | 96 | 6 | – | CC(=O)N[C@@H](CCCNC(=N)N)C(=O)N[C@H]1CCC(=O)NCCC[C@@H](C(N)=O)NC(=O)[C@H](Cc2c[nH]c3ccccc23)NC(=O)[C@H](CCCNC(=N)N)NC(=O)[C@@H](Cc2ccccc2)NC(=O)[C@H](CCC(N)=O)NC1=O [No. 12, Ac-Arg-cyclo(Glu-Gln-D-Phe-Arg-Trp-Orn)-NH2] |
| 19 | 52 | 7 | – | CC(=O)N[C@@H](CCCNC(=N)N)C(=O)N[C@H]1CCCNC(=O)CC[C@@H](C(N)=O)NC(=O)[C@H](Cc2c[nH]c3ccccc23)NC(=O)[C@H](CCCNC(=N)N)NC(=O)[C@@H](Cc2ccccc2)NC(=O)[C@H](C)NC1=O [No. 41, Ac-Arg-cyclo(Orn-Ala-D-Phe-Arg-Trp-Glu)-NH2] (Ac-R[Orn]A[dF]RWE-NH2; lactam 2-7) |
| 9 | – | 5 | – | CC(=O)N[C@@H](CCCNC(=N)N)C(=O)N[C@H]1CC(=O)NCCCC[C@@H](C(=O)O)NC(=O)[C@H](Cc2c[nH]c3ccccc23)NC(=O)[C@H](CCCNC(=N)N)NC(=O)[C@@H](Cc2ccccc2)NC(=O)[C@H](COCc2ccccc2)NC1=O [reference compound] |
| 5 | 54 | 6 | – | CC(=O)N[C@@H](CCCNC(=N)N)C(=O)N[C@H]1CCCNC(=O)CC[C@@H](C(N)=O)NC(=O)[C@H](Cc2c[nH]c3ccccc23)NC(=O)[C@H](CCCNC(=N)N)NC(=O)[C@@H](Cc2ccccc2)NC(=O)[C@@H]2CCCN2C1=O [No. 47, Ac-Arg-cyclo(Orn-Pro-D-Phe-Arg-Trp-Glu)-NH2] (Ac-R[Orn]P[dF]RWE-NH2; lactam 2-7) |
| 7 | 29 | – | – | CC(=O)N[C@@H](CCCNC(=N)N)C(=O)N[C@H]1CC(=O)NCCCC[C@@H](C(N)=O)NC(=O)[C@H](Cc2c[nH]c3ccccc23)NC(=O)[C@H](CCCNC(=N)N)NC(=O)[C@@H](Cc2ccccc2)NC(=O)[C@H](CCS(C)(=O)=O)NC1=O [reference compound] |
| 8 | 71 | 5 | – | CC(=O)N[C@@H](CCCNC(=N)N)C(=O)N[C@H]1CCC(=O)NCCC[C@@H](C(N)=O)NC(=O)[C@H](Cc2c[nH]c3ccccc23)NC(=O)[C@H](CCCNC(=N)N)NC(=O)[C@@H](Cc2ccccc2)NC(=O)[C@H](CCS(C)(=O)=O)NC1=O [No. 13, Ac-Arg-cyclo(Glu-Met(O2)-D-Phe-Arg-Trp-Orn)-NH2] |
| – | 69 | – | 33 | CC(=O)NCC[C@@H]1NC(=O)[C@@H](NC(=O)[C@H](CCCNC(=N)N)NC(C)=O)CC(=O)NCCCC[C@@H](C(N)=O)NC(=O)[C@H](Cc2c[nH]c3ccccc23)NC(=O)[C@H](CCCNC(=N)N)NC(=O)[C@@H](Cc2ccccc2)NC1=O [reference compound] |
| 4 | 94 | 0.3 | – | CC(=O)N[C@@H](CCCNC(=N)N)C(=O)N[C@H]1CCC(=O)NCCC[C@@H](C(N)=O)NC(=O)[C@H](Cc2c[nH]c3ccccc23)NC(=O)[C@H](CCCNC(=N)N)NC(=O)[C@@H](Cc2ccccc2)NC(=O)[C@H](CCN)NC1=O [No. 6, Ac-Arg-cyclo(Glu-Dab-D-Phe-Arg-Trp-Orn)-NH2] |
| 9 | 95 | 0.4 | – | CC(=O)N[C@@H](CCCNC(=N)N)C(=O)N[C@H]1CCC(=O)NCCC[C@@H](C(N)=O)NC(=O)[C@H](Cc2c[nH]c3ccccc23)NC(=O)[C@H](CCCNC(=N)N)NC(=O)[C@@H](Cc2ccccc2)NC(=O)[C@H](CCCN)NC1=O [No. 8, Ac-Arg-cyclo(GIu-Orn-D-Phe-Arg-Trp-Orn)-NH2] |
| 1 | 84 | 1 | – | CC(=O)N[C@@H](CCCNC(=N)N)C(=O)N[C@H]1CCCNC(=O)CC[C@@H](C(N)=O)NC(=O)[C@H](Cc2c[nH]c3ccccc23)NC(=O)[C@H](CCCNC(=N)N)NC(=O)[C@@H](Cc2ccccc2)NC(=O)[C@H](Cc2c[nH]cn2)NC1=O [No. 38, Ac-Arg-cyclo(Orn-His-D-Phe-Arg-Trp-Glu)-NH2] (Ac-R[Orn]H[dF]RWE-NH2; lactam 2-7) |
| 9 | 85 | 5 | – | CC(=O)N[C@@H](CCCCN)C(=O)N[C@H]1CC(=O)NCCCC[C@@H](C(N)=O)NC(=O)[C@H](Cc2c[nH]c3ccccc23)NC(=O)[C@H](CCCNC(=N)N)NC(=O)[C@@H](Cc2ccccc2)NC(=O)[C@H](Cc2c[nH]cn2)NC1=O [reference compound] (Ac-KDH[dF]RWK-NH2; lactam 2-7) |
| 0.1 | 93 | 0.1 | – | CCCC[C@H](NC(C)=O)C(=O)N[C@H]1CCC(=O)NCCC[C@@H](C(N)=O)NC(=O)[C@H](Cc2c[nH]c3ccccc23)NC(=O)[C@H](CCCNC(=N)N)NC(=O)[C@@H](Cc2ccccc2)NC(=O)[C@H](Cc2c[nH]cn2)NC1=O [No. 2, Ac-Nle-cyclo(Glu-His-D-Phe-Arg-Trp-Orn)-NH2] |
| 0.2 | 85 | 0.2 | – | CCCC[C@H](NC(C)=O)C(=O)N[C@H]1CCCNC(=O)CC[C@@H](C(N)=O)NC(=O)[C@H](Cc2c[nH]c3ccccc23)NC(=O)[C@H](CCCNC(=N)N)NC(=O)[C@@H](Cc2ccccc2)NC(=O)[C@H](Cc2c[nH]cn2)NC1=O [No. 36, Ac-Nle-cyclo(Orn-His-D-Phe-Arg-Trp-Glu)-NH2] |
| 1 | 83 | 0.2 | – | CC(=O)N[C@@H](CCCNC(=N)N)C(=O)N[C@H]1CCC(=O)NCCC[C@@H](C(N)=O)NC(=O)[C@H](Cc2c[nH]c3ccccc23)NC(=O)[C@H](CCCNC(=N)N)NC(=O)[C@@H](Cc2ccccc2)NC(=O)[C@H](Cc2c[nH]cn2)NC1=O [No. 4, Ac-Arg-cyclo(Glu-His-D-Phe-Arg-Trp-Orn)-NH2] (Ac-REH[dF]RW[Orn]-NH2; lactam 2-7) |
| 573 | 62 | – | – | CC(=O)NCCC[C@@H]1NC(=O)[C@@H](NC(=O)[C@H](CCCNC(=N)N)NC(C)=O)CC(=O)NCCCC[C@@H](C(N)=O)NC(=O)[C@H](Cc2c[nH]c3ccccc23)NC(=O)[C@H](CCCNC(=N)N)NC(=O)[C@@H](Cc2ccccc2)NC1=O [reference compound] |
